Assay results as given in US8119657B2, “Enantiomeric compositions of 2-amino-1-(2-isopropylpyrazolo[1,5-α]pyridin-3-yl)propan-1-one and related methods” (MediciNova, Inc., priority 2009, dated 2012).
“Also recorded” adds a separate entry of the source. Marks after values point to notes of the source that are not given here.

Key:
[1] = Chiral and chemical stability in solution and on storage; format: physicochemical
Text: Without ascribing to any particular theory, the present inventors believe that the facile separation of enantiomers using the N-protected racemate of AV1013 is probably due to the greater stability of the racemate as well as the separate enantiomers in protected form. […] Unstability also stems from the ability of the free base to self condense. Because self-condensation is promoted in concentrated solutions, it is desirable to avoid highly concentrated solutions of the free base form of optically active AV1013. Likewise, the free base form of racemic AV1013 or its hydrochloride salt are also unstable, precluding their use as precursors to obtaining (S)-AV1013 as a free base or its hydrochloride salt in high yield and/or high purity.
Thus, it is often desirable to re-purify the de-protected product using purification techniques known in the art. For example, any one or more of the methods described above for separating chiral molecules, such as, chromatography (e.g., HPLC, GC, and SFC), crystallization, fractional crystallization, and the like may be used for re-purification. An exemplary method is recrystallization. Purification by recrystallization allows separation of the desired (S)-enantiomer in high purity, such that the overall reaction sequence including isolation of the desired (S)-enantiomer requires only a single chromatographic step (i.e., the chiral separation). Recrystallization can be carried out in any of a number of single or mixed solvent systems including alcohols, ethers, esters, nitriles, halogenated hydrocarbons, amides and aqueous mixtures thereof. Suitable solvents include methanol, ethanol, propanol, iso-propanol, acetone, tetrahyrofuran, methyl ethyl ketone, methyl isobutyl ketone, ethyl acetate, amyl acetate, acetonitrile, diethyl ether, methyl tert-butyl ether, dichloromethane, dichloroethane, chloroform, dimethylformamide, and combinations thereof. Illustrative mixed solvent systems used to recrystallize (S)-AV1013 are iso-propanol/methyl tert-butyl ether and ethanol/methyl tert-butyl ether.
The five-step route provided a 15% overall yield of (S)-AV1013.HCl. The chiral separation, by SFC chromatography, is the only chromatographic step required. Hydrolysis of the N-protected (S)-AV1013, followed by recrystallization from iso-propanol/methyl tert-butyl ether provided (S)-AV1013.HCl in greater than 99% chemical purity and greater than 97% S-enantiomer (greater than 94% enantiomeric excess (ee)) by chiral HPLC, as determined from the equation ee=[|R−S^51÷(R+S)]×100 ee=[|R−S|÷(R+S)]×100. […] Even under optimal storage and handling conditions to minimize exposure to moisture, a small degree of racemization (i.e., approximately 2%) was observed. Recrystallization was effective to improve enantiomeric purity to arrive at a product having an illustrative chiral purity as described above. […] The recrystallized (S)-AV 1013.HCl contained approximately 25 mole percent alcohol (less than about 10% by weight) even when dried at 50° C. Thus, it appears that the resultant product is formed as a solvate under the recrystallization and drying conditions employed.

[2] = tested on: formalin paw model; test: Inflammatory pain model (formalin paw model) in mice; format: in vivo; settings: mice, 300 mg/kg p.o. 60 min before the test
Method: The model employed is described in detail by Wheeler-Aceto et al (Psychopharmacology, 104, p 35-44, (1991)). Briefly, mice were given an intraplantar injection of 5% formalin (25 μl) into the posterior left paw. […] Mice were briefly observed at 1 minute intervals between 15 and 50 minutes after the injection of formalin and the number of times mice were observed licking the injected paw was recorded. 10 mice were studied in each group. The test was performed blind.
AV1013-S was evaluated at 3 doses (10, 25 and 50 mg/kg), administered p.o. 60 minutes before the test (i.e. 45 minutes before formalin), and compared with a vehicle control group. Gabapentin (300 mg/kg p.o.), administered under the same experimental conditions, was used as reference substance. The experiment therefore included 5 groups.
Data were analyzed by comparing treated groups with vehicle control using unpaired Mann-Whitney U tests.

[3] = Rat pharmacokinetics of the enantiomers after oral dosing of racemic AV1013; format: in vivo
Method: Three male Sprague-Dawley rats were dosed orally via gavage with 25 mg/kg racemic AV1013 dissolved in water. Serial blood samples were collected from the tail vein at 5, 15, and 30 min, 1, 3, and 6 hours post dosing. Samples were processed for plasma via centrifugation and plasma samples were stored frozen prior to analysis.
(§1) A sensitive and specific chiral HPLC/MS/MS bioanalytical method for the detection of (S)-AV1013 and (R)-AV1013 enantiomers in rat and dog plasma was utilized. AV1013 enantiomers and the internal standard (AV1040, an analog of AV1013) were isolated from plasma by protein precipitation induced by acetonitrile. After centrifugation to sediment the proteins, the supernatant fractions were analyzed by high performance liquid chromatography (LC) in conjunction with a triple quadrupole mass spectrometer that used electrospray ionization in tandem with positive ionization (MS/MS) according to the conditions below. The LLOQ (lower level of quantitation) was typically <3 ng/mL.
(§2) Analysis of pharmacokinetic parameters was performed for each enantiomer via LC/MS bioanalytics and WinNonlin™ analysis (version 4.0.1; Pharsight Corp., Mountain View, Calif.), commercial software designed for the analysis of PK data. The PK modeling was based on a non-compartmental model with gradual input into the central compartment. Computation of the area under the curve (AUC) was based on the sum of trapezoidal areas for the plotted plasma concentration-time data. AUC and associated parameters were estimated by log-linear regression analysis of the terminal phase.

[4] = Dog pharmacokinetics of the enantiomers after oral dosing of racemic AV1013; format: in vivo
Method: Three male beagle dogs were dosed orally with 10 mg/kg racemic AV1013 via gavage. AV1013 was dissolved in water at 5 mg/ml and dosed via gavage at a volume of 2 ml/kg. Blood samples were collected via the jugular vein at 5, 15 and 30 minutes, 1, 2, 4, 6, 8, and 24 hours post dosing.
as §1, §2

[5] = molecular target: T1, rhMIF (recombinant human Macrophage migration Inhibitory Factor) (Homo sapiens, UniProt P14174); test: MIF-induced migration of human peripheral blood monocytes (PBMCs); format: cell-based; settings: rhMIF 90 nM, dilution series of inhibitor
T1 sequence (P14174 2-115 limits assumed): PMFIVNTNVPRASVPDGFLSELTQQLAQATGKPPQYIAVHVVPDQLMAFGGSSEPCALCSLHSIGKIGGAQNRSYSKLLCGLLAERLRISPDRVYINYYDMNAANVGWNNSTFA
Method: The chemo attractant activities of rhMIF (recombinant human Macrophage migration Inhibitory Factor) and the effect of inhibitors were measured using human peripheral blood monocytes (PBMCs) isolated from whole blood by centrifugation on Histopaque-1077 (Sigma). The cells were washed in RPMI-1640, diluted to 1×10^6 cells/ml and analyzed immediately. These assays were carried out in 24 well tissue culture plates utilizing 8.0 μm cell culture inserts (Falcon). Recombinant hMIF (90 nM), diluted in RPMI was placed in the cells of a 24 well plate with or without inhibitor (10-fold molar excess or dilution series) and allowed to incubate for 30 min at 37° C., 5% CO2. Washed human monocytes were added to the upper chamber of 8.0 μm cell culture inserts and allowed to incubate for 3 hrs at 37° C., 5% CO2. Cells that migrate through the membrane were fixed in methanol and stained with Geimsa, prior to cell counting using light microscopy.
Results are expressed as the mean number of cells counted per high power field for each of two replicates to obtain statistically significant data. (Legend: −Star=no human MIF, Skull=no human MIF+10 uM (S)-AV1013. See FIGS. 5A and 5B.

[6] = tested on: rat chronic constriction injury model of neuropathic pain; test: Rat chronic constriction injury model of neuropathic pain (von Frey mechanical allodynia); format: in vivo; settings: for in vivo activity in a rat model of neuropathic pain: dose not stated
Text: The (S)- and the (R)-enantiomer of AV1013 were each evaluated in a rat chronic constriction injury model of neuropathic pain (see, Ledeboer et. al., Neuron Glia Biology, (2006), p 279-291), to determine whether differences in their activity could be observed.
To induce allodynia, male Sprague-Dawley rats underwent chronic constriction injury (CCI) to the sciatic nerve as described by Bennett and Xie, Pain 1988; 33(1):87-107. The plantar surface of the hind paws was stimulated with von Frey filaments (Stoelting) to induce a withdrawal response by blinded personnel. The bending force of fiber required to induce a 50% withdrawal response was calculated following CCI surgery (pre-dosing baseline).
Allodynic rats (N=5-6), received an oral administration of (S)-AV1013 (25 mg/kg), AV1013-R (100 mg/kg) or vehicle. Two hours post-dosing, 50% paw withdrawal threshold was determined by blinded testers using von Frey filaments. The 50% withdrawal threshold prior to CCI surgery, pre-dosing (10 days post-surgery), and 2 hours post-dosing are plotted in FIG. 3.

[7] = tested on: Rolipram binding site; test: Inhibition of binding at the Rolipram binding site; settings: 10 uM
[8] = oral 25 mg/kg racemic AV1013, plasma
[9] = oral dosing of racemate, rounded values
[10] = beagle dog, oral 10 mg/kg racemic AV1013, plasma
[11] = dog, oral dosing of racemate, rounded values

Structure (SMILES): CC(C)c1nn2ccccc2c1C(=O)[C@H](C)N.Cl [(S)-AV1013.HCl, (S)-2-Amino-1-(2-isopropylpyrazolo[1,5-a]pyridin-3-yl)propan-1-one hydrochloride]
- degree of racemization on storage ([1]; hydrochloride salt, optimal storage and handling conditions to minimize exposure to moisture): approximately 2%

Structure (SMILES): NCC1(CC(=O)O)CCCCC1 [Gabapentin, reference compound]
- % Change from Control [2]: −83%
- Licking Score (Mean +/− SEM) ([2]; p < 0.01): 2.6 +/− 0.8 *

Structure (SMILES): CC(C)c1nn2ccccc2c1C(=O)[C@@H](C)N [(R)-AV1013]
- AUC last [3, 8]: 340 ng·h/mL
- Cmax [3, 8]: 190 ng/mL
- calculated area under the curves (AUC) [3, 9]: 300 ng·h/mL
- mean peak plasma levels (Cmax) [3, 9]: 200 ng/mL
- AUC last [4, 10]: 7640 ng·h/mL
- Cmax [4, 10]: 1140 ng/mL
- calculated area under the curves (AUC) [4, 11]: 7600 ng·h/mL
- mean peak plasma levels (Cmax) [4, 11]: 1100 ng/mL
- antagonism of MIF-induced cell migration [5]: antagonize MIF-induced macrophage migration in a dose-dependent fashion; also recorded: antagonize MIF-induced mononuclear cell migration in a similar dose dependent fashion
- in vivo activity in a rat model of neuropathic pain [6]: little or no in vivo activity
- attenuation of mechanical allodynia (50% paw withdrawal threshold) ([6]; rat CCI, oral 100 mg/kg, 2 hours post-dosing): essentially no activity

Structure (SMILES): CC(N)C(=O)c1c(C(C)C)nn2ccccc12 (racemic) [AV1013, 2-amino-1-(2-isopropylpyrazolo[1,5-a]pyridin-3-yl)propan-1-one]
- stability / racemization in solution ([1]; free base (or hydrochloride salt where stated), in solution): unstable
- inhibition of the Rolipram binding site [7]: 43%
- in vivo activity in a rat model of neuropathic pain [6]: significant in vivo activity
